Data reported in patent US11555026B2, “AHR inhibitors and uses thereof” (Ikena Oncology, Inc., priority 2017, dated 2023).

These molecules were tested against T1, AHR (UniProt P35869) (assay: DRE-Luciferase Reporter Assay (Example 1A)). Conditions: concentration which inhibits half of the luciferase activity induced by an AHR activating ligand; murine (Hepa1-6, Hepa-1c1c7) or human (HepG2) DRE-luciferase reporter cells, cell line used not stated.
T1 sequence (P35869 1-848): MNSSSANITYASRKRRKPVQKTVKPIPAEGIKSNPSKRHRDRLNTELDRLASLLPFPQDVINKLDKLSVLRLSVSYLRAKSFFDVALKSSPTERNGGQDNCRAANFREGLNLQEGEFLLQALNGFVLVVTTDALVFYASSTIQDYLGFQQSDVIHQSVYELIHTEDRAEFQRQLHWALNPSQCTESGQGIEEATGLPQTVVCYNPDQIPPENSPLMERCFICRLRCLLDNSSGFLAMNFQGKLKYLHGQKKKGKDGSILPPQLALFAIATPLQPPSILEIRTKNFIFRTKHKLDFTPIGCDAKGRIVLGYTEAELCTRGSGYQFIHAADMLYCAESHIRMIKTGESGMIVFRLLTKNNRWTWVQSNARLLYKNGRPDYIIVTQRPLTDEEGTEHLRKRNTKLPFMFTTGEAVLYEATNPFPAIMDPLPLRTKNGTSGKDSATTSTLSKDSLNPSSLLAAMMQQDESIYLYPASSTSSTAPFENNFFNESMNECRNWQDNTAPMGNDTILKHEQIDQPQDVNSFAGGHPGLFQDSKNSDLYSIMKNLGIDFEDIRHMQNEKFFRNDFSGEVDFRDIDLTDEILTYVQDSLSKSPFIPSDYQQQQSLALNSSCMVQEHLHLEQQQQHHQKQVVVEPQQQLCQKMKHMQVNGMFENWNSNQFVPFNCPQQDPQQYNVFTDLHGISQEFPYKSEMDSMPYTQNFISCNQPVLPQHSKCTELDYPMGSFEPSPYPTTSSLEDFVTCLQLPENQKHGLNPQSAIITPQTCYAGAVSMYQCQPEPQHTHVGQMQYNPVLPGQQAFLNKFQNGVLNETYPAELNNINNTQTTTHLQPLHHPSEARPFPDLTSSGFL
Format: cell-based
Parameters: IC50
Description: AHR binds to Dioxin Responsive Elements (DRE) upstream of genes that it activates. One measure of AHR activity is activation of a reporter gene, such as luciferase, downstream of one or multiple DRE elements. Luciferase activity will reflect activation and inhibition of AHR in the cells expressing his reporter.
Murine Hepa1-6 or Hepa-1c1c7 or other murine cell line with a DRE-luciferase reporter either stably or transiently transfected were plated in media in plates (96-well, 384-well or other plates) and incubated overnight at 37° C. in a CO2 incubator. Likewise, human HepG2 or other human cell line with a DRE-luciferase reporter either stably or transiently transfected were plated in media in plates (96-well, 384-well or other plates) and incubated overnight at 37° C. in a CO2 incubator.
The next day, an AHR activating ligand, such as TCDD, kynurenine, ITE (2-(1H-indole-3-ylcarbonyl)-4-thiazolecarboxylic methyl ester), VAF347, BNF (beta-naphthoflavone), FICZ (6-formylindolo(3,2-b) carbazole or other AHR ligands, was added with or without AHR antagonist.
Cells were incubated for 4, 15 or 24 hours or another time point and then lysed for determination of luciferase activity as a read-out of the AHR activation or inhibition. Luciferase was measured with a commercial kit such as the Promega Luciferase kit or any kit or reagents that provide the luciferin substrate for measuring luciferase activity. The level of luciferase with only activating ligand added was the maximum signal while the luciferase with no ligand was the minimum signal. IC50 values were determined as the concentration which inhibits half of the luciferase activity.
`Cc1ccccc1CCc1ccc(NC(=O)c2ccnn2C)c(C)c1` [I-6, 1-methyl-N-(2-methyl-4-(2-methylphenethyl)phenyl)-1H-pyrazole-5-carboxamide] gave an IC50 greater than 1500 nM. `Cc1ccccc1/C=C/c1ccc(NC(=O)c2ccn[nH]2)c(C)c1` [I-36] was tested, and the IC50 was greater than 1500 nM. With `Cc1cc(/N=N/c2ncccc2C)ccc1NC(=O)c1ccnn1C` [I-26] the IC50 was greater than 1500 nM. For `Cc1ccccc1/C=C/c1ccc(NC(=O)c2ccnn2C)c(C)c1` [I-5, (E)-1-methyl-N-(2-methyl-4-(2-methylstyryl)phenyl)-1H-pyrazole-5-carboxamide], the IC50 was less than 500 nM. Molecule `Cc1cc(C2OC2c2ccccc2C)ccc1NC(=O)c1ccnn1C` (centres unmarked) [I-23, 2-Methyl-N-[2-methyl-4-[3-(o-tolyl)oxiran-2-yl]phenyl]pyrazole-3-carboxamide] has an IC50 of less than 500 nM. `Cc1cc(C2OC2c2ccccc2)ccc1NC(=O)c1ccnn1C` (centres unmarked) [I-21] showed an IC50 greater than 1500 nM. With `Cc1cc(/C=C/c2ccccc2)ccc1NC(=O)c1ccnn1C` [I-20, 2-Methyl-N-[2-methyl-4-[(E)-styryl]phenyl]pyrazole-3-carboxamide] the IC50 was less than 500 nM. `Cc1ccccc1C#Cc1ccc(NC(=O)c2ccnn2C)c(C)c1` [I-29, 2-Methyl-N-[2-methyl-4-[2-(o-tolyl)ethynyl]phenyl]pyrazole-3-carboxamide] gave an IC50 of less than 500 nM. In the case of `Cc1ccccc1/N=N/c1ccc(NC(=O)c2ccccn2)c(C)c1` [I-14], the IC50 is reported as greater than 1500 nM. `Cc1ccccc1NCc1ccc(NC(=O)c2ccnn2C)c(C)n1` [I-15, 2-Methyl-N-[2-methyl-6-[(2-methylanilino)methyl]-3-pyridyl]pyrazole-3-carboxamide] showed an IC50 of 1000 to 1500 nM. Molecule `Cc1cc(-c2cc3ccccc3cn2)ccc1NC(=O)c1ccnn1C` [I-31] has an IC50 greater than 1500 nM. `Cc1ccccc1NC(=O)c1ccc(NC(=O)c2ccnn2C)c(C)n1` [I-12, 6-Methyl-5-(1-methyl-1H-pyrazole-5-carboxamido)-N-(o-tolyl)picolinamide] was tested, and the IC50 was 500 to 1000 nM. In the case of `Cc1ccccc1/N=N/c1ccc(NC(=O)c2ccnn2C)cc1C` [I-24, 2-Methyl-N-[3-methyl-4-[(E)-o-tolylazo]phenyl]pyrazole-3-carboxamide], the IC50 is reported as less than 500 nM. In the case of `Cc1ccccc1NC(=O)c1ccc(NC(=O)c2ccnn2C)c(C)c1` [I-8, 1-methyl-N-(2-methyl-4-(o-tolylcarbamoyl)phenyl)-1H-pyrazole-5-carboxamide], the IC50 is reported as greater than 1500 nM. `Cc1cc(C(=O)N2CCc3ccccc32)ccc1NC(=O)c1ccnn1C` [I-2] was tested, and the IC50 was greater than 1500 nM. Work on `Cc1ccccc1/C=C\c1ccc(NC(=O)c2ccnn2C)c(C)c1` [I-7, (Z)-1-methyl-N-(2-methyl-4-(2-methylstyryl)phenyl)-1H-pyrazole-5-carboxamide] yielded an IC50 greater than 1500 nM. For `Cc1ccccc1/C=C/c1ccc(NC(=O)c2ccnn2C)cc1` [I-27, 2-Methyl-N-[4-[(E)-2-(o-tolyl)vinyl]phenyl]pyrazole-3-carboxamide], the IC50 was 500 to 1000 nM. For `Cc1cc(NC(=O)c2ccccc2C)ccc1NC(=O)c1ccnn1C` [I-9, 1-methyl-N-(2-methyl-4-(2-methylbenzamido)phenyl)-1H-pyrazole-5-carboxamide], the IC50 was greater than 1500 nM. `Cc1cc(C(=O)Nc2ncccc2C)ccc1NC(=O)c1ccnn1C` [I-3] showed an IC50 greater than 1500 nM. `Cn1nccc1C(=O)Nc1ccc2nc(-c3ccccc3)ccc2c1` [I-22, 2-Methyl-N-(2-phenyl-6-quinolyl)pyrazole-3-carboxamide] showed an IC50 of less than 500 nM. `Cc1cc(N)ccc1NC(=O)c1ccnn1C` [I-16] gave an IC50 greater than 1500 nM. For `Cc1cc(-c2ccc3ccccc3c2)ccc1NC(=O)c1ccnn1C` [I-32], the IC50 was greater than 1500 nM. `Cc1ccccc1/C=C/c1ccc(NC(=O)c2cncn2C)c(C)c1` [I-37] was tested, and the IC50 was greater than 1500 nM. `Cc1ccccc1/N=N/c1ccc(C(=O)Nc2ccnn2C)c(C)c1` [I-25, 2-Methyl-N-(2-methylpyrazol-3-yl)-4-[(E)-o-tolylazo]benzamide] gave an IC50 of less than 500 nM. Work on `Cc1cc(C(=O)n2ccc3ccccc32)ccc1NC(=O)c1ccnn1C` [I-4] yielded an IC50 greater than 1500 nM. `Cc1cc(/C=C/c2cccnc2C)ccc1NC(=O)c1ccnn1C` [I-19] showed an IC50 greater than 1500 nM. With `Cc1cc(C(=N)Nc2ncccc2C)ccc1NC(=O)c1ccnn1C` [I-13] the IC50 was greater than 1500 nM. `Cc1ccccc1-c1ccc2cc(NC(=O)c3ccnn3C)ccc2n1` [I-30] was tested, and the IC50 was greater than 1500 nM. `Cc1ccccc1NCc1ccc(NC(=O)c2ccnn2C)c(C)c1` [I-11, 1-methyl-N-(2-methyl-4-((o-tolylamino)methyl)phenyl)-1H-pyrazole-5-carboxamide] gave an IC50 greater than 1500 nM. `Cc1cc(COc2ccccc2C)ccc1NC(=O)c1ccnn1C` [I-18, 2-Methyl-N-[2-methyl-4-[(2-methylphenoxy)methyl]phenyl]pyrazole-3-carboxamide] showed an IC50 of less than 500 nM. Molecule `Cc1cc(C(=O)N2CCCc3ccccc32)ccc1NC(=O)c1ccnn1C` [I-1] has an IC50 greater than 1500 nM. In the case of `Cc1ccccc1CNc1ccc(NC(=O)c2ccnn2C)c(C)c1` [I-10, 1-methyl-N-(2-methyl-4-((2-methylbenzyl)amino)phenyl)-1H-pyrazole-5-carboxamide], the IC50 is reported as greater than 1500 nM.
